In the OligoGym collection:
Oligonucleotides are written 5' to 3', each unit as a sugar letter and its base; * is a phosphorothioate linkage, no mark a phosphodiester; rarer units and linkages stand in square brackets, end groups in braces. Plain capitals give the bases only. Oligonucleotides are given in HELM: sugar(base)linkage, 5' to 3'; d 2'-deoxyribose, r ribose, m 2'-O-methylribose, p phosphate. ss, as = sense and antisense strand; d = 2'-deoxy (DNA); r = 2'-OH (RNA)

Target: P2RX3
Experiment: reporter assay of Huesken 2005
Details: siRNA
Also: test concentration or dose not given here.

Substance	normalised inhibition (eCFP-eYFP dual reporter) [%]
sense rUrCrCrUrCrArCrUrGrGrCrCrGrCrUrGrCrGrUdTdT / antisense rArCrGrCrArGrCrGrGrCrCrArGrUrGrArGrGrAdTdC	16.4
sense rUrCrCrUrGrCrUrCrArArCrUrUrCrCrUrCrArAdTdT / antisense rUrUrGrArGrGrArArGrUrUrGrArGrCrArGrGrAdTdG	90.3
sense rUrCrGrGrCrUrGrGrGrUrGrUrGrCrGrArCrUrUdTdT / antisense rArArGrUrCrGrCrArCrArCrCrCrArGrCrCrGrAdTdC	77.1
sense rUrCrGrGrUrCrUrUrUrGrUrCrArUrCrArUrCrAdTdT / antisense rUrGrArUrGrArUrGrArCrArArArGrArCrCrGrAdGdG	72.8
sense rUrCrUrUrGrCrGrGrGrUrArGrGrGrGrArCrGrUdTdT / antisense rArCrGrUrCrCrCrCrUrArCrCrCrGrCrArArGrAdTdG	75.9
sense rUrGrArCrArGrCrCrArGrGrGrArCrArUrGrArAdTdT / antisense rUrUrCrArUrGrUrCrCrCrUrGrGrCrUrGrUrCrAdGdG	90.5
sense rUrGrCrArUrCrCrCrCrArArArUrArCrUrCrCrUdTdT / antisense rArGrGrArGrUrArUrUrUrGrGrGrGrArUrGrCrAdCdT	56.3
sense rUrGrCrCrGrCrUrUrCrCrArCrCrCrGrGrArCrAdTdT / antisense rUrGrUrCrCrGrGrGrUrGrGrArArGrCrGrGrCrAdGdG	93.7
sense rUrGrGrUrGrCrCrCrCrArCrGrGrArGrGrUrGrGdTdT / antisense rCrCrArCrCrUrCrCrGrUrGrGrGrGrCrArCrCrAdGdC	13.5
sense rUrGrUrCrUrGrArUrUrArCrGrUrGrArCrGrCrCdTdT / antisense rGrGrCrGrUrCrArCrGrUrArArUrCrArGrArCrAdCdA	43.1
sense rUrUrArArGrArUrCrGrGrCrUrGrGrGrUrGrUrGdTdT / antisense rCrArCrArCrCrCrArGrCrCrGrArUrCrUrUrArAdTdG	55.4
sense rUrUrCrArGrCrUrUrCrUrGrArUrCrArUrCrUrCdTdT / antisense rGrArGrArUrGrArUrCrArGrArArGrCrUrGrArAdCdT	46.8
sense rUrUrCrUrGrCrCrCrArGrArGrArGrUrGrArGrGdTdT / antisense rCrCrUrCrArCrUrCrUrCrUrGrGrGrCrArGrArAdTdC	44.3
sense rUrUrGrCrGrGrGrGrCrArGrGrArUrUrUrUrGrCdTdT / antisense rGrCrArArArArUrCrCrUrGrCrCrCrCrGrCrArAdAdC	33.4
sense rUrUrGrUrUrArCrUrGrArArArArUrCrArGrArUdTdT / antisense rArUrCrUrGrArUrUrUrUrCrArGrUrArArCrArAdTdC	54.1
sense rUrUrUrCrUrGrCrCrCrCrArUrCrUrUrGrCrGrGdTdT / antisense rCrCrGrCrArArGrArUrGrGrGrGrCrArGrArArAdGdG	35.2
sense rUrUrUrGrCrCrArArArCrUrGrGrCrGrCrGrCrAdTdT / antisense rUrGrCrGrCrGrCrCrArGrUrUrUrGrGrCrArArAdAdT	37.3

Target: UBE2K
Experiment: reporter assay of Huesken 2005
Details: siRNA

Substance	normalised inhibition (eCFP-eYFP dual reporter) [%]
RNA1{r(A)p.r(A)p.r(A)p.r(A)p.r(U)p.r(A)p.r(U)p.r(G)p.r(G)p.r(C)p.r(A)p.r(U)p.r(C)p.r(C)p.r(U)p.r(A)p.r(A)p.r(U)p.r(A)p.d(T)p.d(T)}|RNA2{r(U)p.r(A)p.r(U)p.r(U)p.r(A)p.r(G)p.r(G)p.r(A)p.r(U)p.r(G)p.r(C)p.r(C)p.r(A)p.r(U)p.r(A)p.r(U)p.r(U)p.r(U)p.r(U)p.d(A)p.d(G)}$$$RNA1{StrandType:ss}|RNA2{StrandType:as}$	67.3
RNA1{r(A)p.r(A)p.r(A)p.r(U)p.r(A)p.r(G)p.r(C)p.r(A)p.r(G)p.r(G)p.r(A)p.r(C)p.r(C)p.r(U)p.r(C)p.r(C)p.r(A)p.r(G)p.r(A)p.d(T)p.d(T)}|RNA2{r(U)p.r(C)p.r(U)p.r(G)p.r(G)p.r(A)p.r(G)p.r(G)p.r(U)p.r(C)p.r(C)p.r(U)p.r(G)p.r(C)p.r(U)p.r(A)p.r(U)p.r(U)p.r(U)p.d(C)p.d(T)}$$$RNA1{StrandType:ss}|RNA2{StrandType:as}$	65.4
RNA1{r(A)p.r(A)p.r(A)p.r(U)p.r(C)p.r(C)p.r(C)p.r(G)p.r(A)p.r(A)p.r(A)p.r(U)p.r(G)p.r(U)p.r(U)p.r(C)p.r(A)p.r(A)p.r(A)p.d(T)p.d(T)}|RNA2{r(U)p.r(U)p.r(U)p.r(G)p.r(A)p.r(A)p.r(C)p.r(A)p.r(U)p.r(U)p.r(U)p.r(C)p.r(G)p.r(G)p.r(G)p.r(A)p.r(U)p.r(U)p.r(U)p.d(T)p.d(G)}$$$RNA1{StrandType:ss}|RNA2{StrandType:as}$	73.8
RNA1{r(A)p.r(A)p.r(G)p.r(G)p.r(A)p.r(G)p.r(G)p.r(A)p.r(A)p.r(G)p.r(A)p.r(U)p.r(A)p.r(C)p.r(C)p.r(A)p.r(A)p.r(C)p.r(U)p.d(T)p.d(T)}|RNA2{r(A)p.r(G)p.r(U)p.r(U)p.r(G)p.r(G)p.r(U)p.r(A)p.r(U)p.r(C)p.r(U)p.r(U)p.r(C)p.r(C)p.r(U)p.r(C)p.r(C)p.r(U)p.r(U)p.d(C)p.d(A)}$$$RNA1{StrandType:ss}|RNA2{StrandType:as}$	68.1
RNA1{r(A)p.r(A)p.r(G)p.r(U)p.r(A)p.r(G)p.r(A)p.r(U)p.r(C)p.r(U)p.r(U)p.r(G)p.r(U)p.r(A)p.r(G)p.r(A)p.r(U)p.r(G)p.r(A)p.d(T)p.d(T)}|RNA2{r(U)p.r(C)p.r(A)p.r(U)p.r(C)p.r(U)p.r(A)p.r(C)p.r(A)p.r(A)p.r(G)p.r(A)p.r(U)p.r(C)p.r(U)p.r(A)p.r(C)p.r(U)p.r(U)p.d(T)p.d(A)}$$$RNA1{StrandType:ss}|RNA2{StrandType:as}$	88.9
RNA1{r(A)p.r(A)p.r(U)p.r(A)p.r(G)p.r(C)p.r(A)p.r(G)p.r(G)p.r(A)p.r(C)p.r(C)p.r(U)p.r(C)p.r(C)p.r(A)p.r(G)p.r(A)p.r(C)p.d(T)p.d(T)}|RNA2{r(G)p.r(U)p.r(C)p.r(U)p.r(G)p.r(G)p.r(A)p.r(G)p.r(G)p.r(U)p.r(C)p.r(C)p.r(U)p.r(G)p.r(C)p.r(U)p.r(A)p.r(U)p.r(U)p.d(T)p.d(C)}$$$RNA1{StrandType:ss}|RNA2{StrandType:as}$	56.1
RNA1{r(A)p.r(C)p.r(A)p.r(G)p.r(G)p.r(A)p.r(U)p.r(G)p.r(C)p.r(U)p.r(G)p.r(U)p.r(A)p.r(G)p.r(U)p.r(A)p.r(G)p.r(C)p.r(A)p.d(T)p.d(T)}|RNA2{r(U)p.r(G)p.r(C)p.r(U)p.r(A)p.r(C)p.r(U)p.r(A)p.r(C)p.r(A)p.r(G)p.r(C)p.r(A)p.r(U)p.r(C)p.r(C)p.r(U)p.r(G)p.r(U)p.d(G)p.d(G)}$$$RNA1{StrandType:ss}|RNA2{StrandType:as}$	89.9
RNA1{r(A)p.r(C)p.r(U)p.r(A)p.r(A)p.r(A)p.r(A)p.r(U)p.r(A)p.r(U)p.r(G)p.r(G)p.r(C)p.r(A)p.r(U)p.r(C)p.r(C)p.r(U)p.r(A)p.d(T)p.d(T)}|RNA2{r(U)p.r(A)p.r(G)p.r(G)p.r(A)p.r(U)p.r(G)p.r(C)p.r(C)p.r(A)p.r(U)p.r(A)p.r(U)p.r(U)p.r(U)p.r(U)p.r(A)p.r(G)p.r(U)p.d(G)p.d(A)}$$$RNA1{StrandType:ss}|RNA2{StrandType:as}$	76
RNA1{r(A)p.r(C)p.r(U)p.r(A)p.r(U)p.r(U)p.r(G)p.r(G)p.r(C)p.r(A)p.r(G)p.r(C)p.r(U)p.r(G)p.r(C)p.r(A)p.r(G)p.r(A)p.r(G)p.d(T)p.d(T)}|RNA2{r(C)p.r(U)p.r(C)p.r(U)p.r(G)p.r(C)p.r(A)p.r(G)p.r(C)p.r(U)p.r(G)p.r(C)p.r(C)p.r(A)p.r(A)p.r(U)p.r(A)p.r(G)p.r(U)p.d(G)p.d(C)}$$$RNA1{StrandType:ss}|RNA2{StrandType:as}$	62
RNA1{r(A)p.r(G)p.r(A)p.r(A)p.r(A)p.r(C)p.r(A)p.r(U)p.r(A)p.r(C)p.r(C)p.r(C)p.r(A)p.r(U)p.r(U)p.r(U)p.r(A)p.r(A)p.r(U)p.d(T)p.d(T)}|RNA2{r(A)p.r(U)p.r(U)p.r(A)p.r(A)p.r(A)p.r(U)p.r(G)p.r(G)p.r(G)p.r(U)p.r(A)p.r(U)p.r(G)p.r(U)p.r(U)p.r(U)p.r(C)p.r(U)p.d(G)p.d(G)}$$$RNA1{StrandType:ss}|RNA2{StrandType:as}$	72.3
RNA1{r(A)p.r(G)p.r(A)p.r(C)p.r(A)p.r(C)p.r(A)p.r(C)p.r(C)p.r(A)p.r(U)p.r(A)p.r(U)p.r(G)p.r(A)p.r(A)p.r(G)p.r(G)p.r(A)p.d(T)p.d(T)}|RNA2{r(U)p.r(C)p.r(C)p.r(U)p.r(U)p.r(C)p.r(A)p.r(U)p.r(A)p.r(U)p.r(G)p.r(G)p.r(U)p.r(G)p.r(U)p.r(G)p.r(U)p.r(C)p.r(U)p.d(G)p.d(G)}$$$RNA1{StrandType:ss}|RNA2{StrandType:as}$	81
RNA1{r(A)p.r(G)p.r(A)p.r(U)p.r(G)p.r(A)p.r(U)p.r(C)p.r(C)p.r(A)p.r(C)p.r(A)p.r(G)p.r(G)p.r(A)p.r(U)p.r(G)p.r(C)p.r(U)p.d(T)p.d(T)}|RNA2{r(A)p.r(G)p.r(C)p.r(A)p.r(U)p.r(C)p.r(C)p.r(U)p.r(G)p.r(U)p.r(G)p.r(G)p.r(A)p.r(U)p.r(C)p.r(A)p.r(U)p.r(C)p.r(U)p.d(G)p.d(G)}$$$RNA1{StrandType:ss}|RNA2{StrandType:as}$	68
RNA1{r(A)p.r(G)p.r(C)p.r(A)p.r(A)p.r(A)p.r(U)p.r(C)p.r(A)p.r(G)p.r(U)p.r(A)p.r(C)p.r(A)p.r(A)p.r(A)p.r(C)p.r(A)p.r(A)p.d(T)p.d(T)}|RNA2{r(U)p.r(U)p.r(G)p.r(U)p.r(U)p.r(U)p.r(G)p.r(U)p.r(A)p.r(C)p.r(U)p.r(G)p.r(A)p.r(U)p.r(U)p.r(U)p.r(G)p.r(C)p.r(U)p.d(A)p.d(C)}$$$RNA1{StrandType:ss}|RNA2{StrandType:as}$	77.8
